In ChEMBL document CHEMBL1148683, “Synthesis and monoamine transporter affinity of front bridged tricyclic 3beta-(4'-halo or 4'-methyl)phenyltropanes bearing methylene or carbomethoxymethylene on the bridge to the 2beta-position” (Bioorg Med Chem Lett, 2006):

Legend:
[1] = target: T1, Sodium-dependent noradrenaline transporter (Homo sapiens, UniProt P23975); experiment: Displacement of [3H]nisoxetine from human NET transfected in HEK293 cells; assay type: cell-based
[2] = target: Sodium-dependent serotonin transporter (Homo sapiens, UniProt P31645); experiment: Displacement of [3H]citalopram from human SERT transfected in HEK293 cells; assay type: cell-based
[3] = target: Sodium-dependent dopamine transporter (Homo sapiens, UniProt Q01959); experiment: Displacement of [125I]RTI-55 from human DAT transfected in HEK293 cells; assay type: cell-based
[4] = target: Serotonin and norepinephrine transporters (SERT/NET) (Homo sapiens) (UniProt P31645+P23975); experiment: Selectivity for human SERT over NET; assay type: protein assay
[5] = target: Monoamine transporters; serotonin & dopamine (Homo sapiens) (UniProt P31645+Q01959); experiment: Selectivity for human SERT over DAT; assay type: protein assay
Rhesus monkey [6] = experiment: Selective uptake in putamen over occipital cortex of iv dosed rhesus monkey after 105 mins by microPET imaging assay; assay type: ADME, organism-based, Macaca mulatta; conditions: in vivo, 1.75 h
[7] = target: T1, Sodium-dependent noradrenaline transporter; experiment: Inhibition of (-)-[3H]NE uptake at NET
Rhesus monkey [8] = experiment: Selective uptake in pons over occipital cortex of iv dosed rhesus monkey after 105 mins by microPET imaging assay; assay type: ADME, organism-based, Macaca mulatta; conditions: in vivo, 1.75 h
Rhesus monkey [9] = experiment: Selective uptake in cerebellum over occipital cortex of iv dosed rhesus monkey after 25 mins by microPET imaging assay; assay type: ADME, organism-based, Macaca mulatta; conditions: in vivo
Rhesus monkey [10] = experiment: Selective uptake in caudate over occipital cortex of iv dosed rhesus monkey after 105 mins by microPET imaging assay; assay type: ADME, organism-based, Macaca mulatta; conditions: in vivo, 1.75 h
Rhesus monkey [11] = experiment: Selective uptake in thalamus over occipital cortex of iv dosed rhesus monkey after 105 mins by microPET imaging assay; assay type: ADME, organism-based, Macaca mulatta; conditions: in vivo, 1.75 h
Rhesus monkey [12] = experiment: Selective uptake in medulla over occipital cortex of iv dosed rhesus monkey after 105 mins by microPET imaging assay; assay type: ADME, organism-based, Macaca mulatta; conditions: in vivo, 1.75 h
Rhesus monkey [13] = experiment: Selective uptake in midbrain over occipital cortex of iv dosed rhesus monkey after 105 mins by microPET imaging assay; assay type: ADME, organism-based, Macaca mulatta, Brain; conditions: in vivo, 1.75 h

Sequence of Sodium-dependent serotonin transporter (P31645 whole entry): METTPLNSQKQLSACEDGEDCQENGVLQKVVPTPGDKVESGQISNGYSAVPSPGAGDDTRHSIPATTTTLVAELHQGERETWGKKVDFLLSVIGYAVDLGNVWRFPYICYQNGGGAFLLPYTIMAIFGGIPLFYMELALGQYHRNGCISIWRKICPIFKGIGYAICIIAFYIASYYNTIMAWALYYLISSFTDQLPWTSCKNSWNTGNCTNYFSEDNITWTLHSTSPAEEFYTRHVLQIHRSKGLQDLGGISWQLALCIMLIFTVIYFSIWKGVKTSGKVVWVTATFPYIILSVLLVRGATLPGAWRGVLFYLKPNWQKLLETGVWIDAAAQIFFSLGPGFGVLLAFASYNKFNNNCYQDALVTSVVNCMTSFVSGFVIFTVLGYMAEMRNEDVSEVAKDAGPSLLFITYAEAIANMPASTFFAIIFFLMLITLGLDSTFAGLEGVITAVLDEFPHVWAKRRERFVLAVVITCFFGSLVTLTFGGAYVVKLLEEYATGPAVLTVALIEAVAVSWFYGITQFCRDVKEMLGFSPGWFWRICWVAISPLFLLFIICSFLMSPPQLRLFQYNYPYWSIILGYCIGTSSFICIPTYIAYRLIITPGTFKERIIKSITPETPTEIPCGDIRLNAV
T1 sequence (P23975 whole entry): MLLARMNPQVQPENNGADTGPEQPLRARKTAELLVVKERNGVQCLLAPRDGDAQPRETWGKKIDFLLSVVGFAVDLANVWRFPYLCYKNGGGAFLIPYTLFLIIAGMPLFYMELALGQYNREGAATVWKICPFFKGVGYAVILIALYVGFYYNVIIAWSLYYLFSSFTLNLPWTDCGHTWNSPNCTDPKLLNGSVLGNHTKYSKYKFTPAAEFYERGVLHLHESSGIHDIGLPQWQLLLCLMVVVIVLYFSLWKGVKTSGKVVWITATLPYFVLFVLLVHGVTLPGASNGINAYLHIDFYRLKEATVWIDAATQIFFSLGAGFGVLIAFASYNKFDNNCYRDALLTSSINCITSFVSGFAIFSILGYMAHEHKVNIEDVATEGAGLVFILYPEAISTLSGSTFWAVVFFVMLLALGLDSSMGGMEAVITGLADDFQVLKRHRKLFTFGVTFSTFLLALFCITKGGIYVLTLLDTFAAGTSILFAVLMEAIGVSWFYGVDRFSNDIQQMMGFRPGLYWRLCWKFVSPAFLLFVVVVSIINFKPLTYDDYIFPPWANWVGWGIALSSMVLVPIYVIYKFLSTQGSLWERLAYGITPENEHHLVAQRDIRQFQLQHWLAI
Sequence of Sodium-dependent dopamine transporter (Q01959 whole entry): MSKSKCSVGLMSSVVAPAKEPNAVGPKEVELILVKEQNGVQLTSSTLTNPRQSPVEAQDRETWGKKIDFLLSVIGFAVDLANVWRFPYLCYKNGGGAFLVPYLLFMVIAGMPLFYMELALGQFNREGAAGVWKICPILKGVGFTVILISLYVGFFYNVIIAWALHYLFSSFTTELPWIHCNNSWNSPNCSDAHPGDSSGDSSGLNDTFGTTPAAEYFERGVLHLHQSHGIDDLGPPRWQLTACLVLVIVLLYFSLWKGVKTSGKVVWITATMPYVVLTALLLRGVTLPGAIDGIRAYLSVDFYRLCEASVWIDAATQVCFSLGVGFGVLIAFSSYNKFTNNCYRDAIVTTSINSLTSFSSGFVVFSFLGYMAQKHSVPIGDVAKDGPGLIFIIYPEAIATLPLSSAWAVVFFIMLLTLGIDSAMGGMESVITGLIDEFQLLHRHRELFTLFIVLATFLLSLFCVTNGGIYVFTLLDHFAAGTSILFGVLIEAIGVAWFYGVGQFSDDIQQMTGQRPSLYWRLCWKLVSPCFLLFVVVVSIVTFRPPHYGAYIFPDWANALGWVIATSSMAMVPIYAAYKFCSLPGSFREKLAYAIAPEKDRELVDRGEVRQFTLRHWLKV
Sequence of Monoamine transporters; serotonin & dopamine (Homo sapiens) (P31645 whole entry, looked up): as the sequence (P31645 whole entry) above
Sequence of Monoamine transporters; serotonin & dopamine (Homo sapiens) (Q01959 whole entry, looked up): as the sequence (Q01959 whole entry) above
Sequence of Serotonin and norepinephrine transporters (SERT/NET) (Homo sapiens) (P23975 whole entry, looked up): as the sequence (P23975 whole entry) above
Sequence of Serotonin and norepinephrine transporters (SERT/NET) (Homo sapiens) (P31645 whole entry, looked up): as the sequence (P31645 whole entry) above

Structure (SMILES)	Ki [1]	Ki [2]	Ki [3]	also measured
COC(=O)/C=C1/CN2C3CCC2C1C(c1ccc(Cl)cc1)C3 (stereo unspecified)	13 nM	18.7 nM	4.54 nM	–
C=C1CN2C3CCC2C1C(c1ccc(Br)cc1)C3 (stereo unspecified)	2.94 nM	0.28 nM	41.9 nM	–
COC(=O)/C=C1/CN2C3CCC2C1C(c1ccc(Br)cc1)C3 (stereo unspecified)	12.5 nM	5.63 nM	2.94 nM	–
C=C1CN2C3CCC2C1C(c1ccc(I)cc1)C3 (stereo unspecified)	5.87 nM	0.09 nM	8.48 nM	Selectivity ratio [4]: 65; Selectivity ratio [5]: 94
C=C1CN2C3CCC2C1C(c1ccc(Cl)cc1)C3 (stereo unspecified)	4.84 nM	0.82 nM	12.3 nM	–
COC(=O)/C=C1/CN2C3CCC2C1C(c1ccc(C)cc1)C3 (stereo unspecified)	25.5 nM	98.3 nM	13.2 nM	–
C=C1CN2C3CCC2C1C(c1ccc(C)cc1)C3 (stereo unspecified)	17.3 nM	7.77 nM	41 nM	Ratio (Rhesus monkey [6]): 1.83; IC50 [7]: 2.2 nM; Ratio (Rhesus monkey [8]): 1.52; Ratio (Rhesus monkey [9]): 1.39; Ratio (Rhesus monkey [10]): 1.47; Ratio (Rhesus monkey [11]): 1.48; Ratio (Rhesus monkey [12]): 1.36; Ratio (Rhesus monkey [13]): 1.53
